Nine molecules from patent US6841519B1, “Isoxazoline derivatives and herbicides containing the same as the active ingredient” (Kumiai Chemical Industry Co., Ltd., priority 1999, dated 2005) can be followed below.

Common to all, as to assay type: in vivo
Assay [1] relates to Setaria viridis (L.) Beauv. (Se). The assay is described as follows: Test for herbicidal effect by upland field soil treatment (Test Example 2), Se. The following applies: 100 g/10 a active ingredient, examined at 21st day. The method, boiled down:
(§1)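 Echinochloa crus-galli and Setaria viridis were sown in upland field soil and covered, then the soil surface was sprayed with water-diluted wettable powder at 100 g active ingredient per 10 ares (100 liters per 10 ares). Plants were grown in a greenhouse and scored on a standard scale on day 21.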

In assay [2] the test system is Echinochloa crus-galli (L.) Beauv. var. crusgall (Ec). The assay is described as follows: Test for herbicidal effect by upland field soil treatment (Test Example 2), Ec. The following applies: 100 g/10 a active ingredient, examined at 21st day. In short, it runs like this: as §1
In assay [3] the test system is Echinochloa oryzicola Vasing. (Eo). Description: Test for herbicidal effect by paddy field soil treatment (Test Example 1). The following applies: application amount (active ingredient) 100 g/10 a, examined at the 21st day from the treatment, index per Table 40. The method, boiled down:
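Eo seeds sown in puddled paddy soil under 3 cm water; next day a water-diluted wettable powder was dropped onto the water surface at 100 g active ingredient per 10 ares. Herbicidal effect scored on a standard scale 21 days after treatment, greenhouse-grown.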

In assay [4] the test system is Echinochloa crus-galli (L.) Beauv. var. crusgalli (Ec). The assay is described as follows: Test for herbicidal effect by upland foliage treatment (Test Example 3). The following applies: 100 g/10 a active ingredient, examined at 14th day. In short, it runs like this: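 Potted upland-soil Ec seedlings grown 2 weeks in greenhouse, then foliage-sprayed with water-diluted wettable powder at 100 L per 10 ares, giving 100 g active ingredient per 10 ares. Herbicidal effect scored on a graded standard 14 days after treatment.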

Molecules are shown by their SMILES.

In the case of `CC1(C)CC(S(=O)(=O)Cc2ccc(F)c(F)c2F)=NO1` [Compound 1-507], the “Herbicidal effect to Se” value in assay [1] is 5 (A herbicidal effect or phytotoxicity of 90% or more). In addition, the “Herbicidal effect to Ec” value in assay [2] is listed as 5 (A herbicidal effect or phytotoxicity of 90% or more); in assay [4] it was 4 (A herbicidal effect or phytotoxicity of 70% to less than 90%). The “Herbicidal effect to Eo” value in assay [3] is reported as 5 (A herbicidal effect or phytotoxicity of 90% or more).
For `CC1(C)CC(S(=O)(=O)Cc2cc(F)cc(F)c2F)=NO1` [Compound 1-508], in assay [1], the “Herbicidal effect to Se” value is listed as 5 (A herbicidal effect or phytotoxicity of 90% or more). Also, the figures for the “Herbicidal effect to Ec” value in assay [2] and in assay [4] were 5 (A herbicidal effect or phytotoxicity of 90% or more) and 4 (A herbicidal effect or phytotoxicity of 70% to less than 90%), respectively. Moreover, in assay [3], the “Herbicidal effect to Eo” value was 5 (A herbicidal effect or phytotoxicity of 90% or more).
As to `CC1(C)CC(S(=O)(=O)Cc2cc(F)c(F)c(F)c2)=NO1` [Compound 1-509], in assay [1], the “Herbicidal effect to Se” value is 5 (A herbicidal effect or phytotoxicity of 90% or more). Also, the “Herbicidal effect to Ec” value in assay [2] is recorded as 5 (A herbicidal effect or phytotoxicity of 90% or more); in assay [4] it was 4 (A herbicidal effect or phytotoxicity of 70% to less than 90%). The “Herbicidal effect to Eo” value in assay [3] was 5 (A herbicidal effect or phytotoxicity of 90% or more).
Take `CC1(C)CC(S(=O)(=O)Cc2cc(F)c(F)cc2F)=NO1` [Compound 1-510]: the “Herbicidal effect to Se” value in assay [1] is given as 5 (A herbicidal effect or phytotoxicity of 90% or more). In addition, the “Herbicidal effect to Ec” value in assay [2] was 5 (A herbicidal effect or phytotoxicity of 90% or more); in assay [4], 4 (A herbicidal effect or phytotoxicity of 70% to less than 90%). In assay [3], the “Herbicidal effect to Eo” value was 5 (A herbicidal effect or phytotoxicity of 90% or more).
As for `Cc1ccc(CS(=O)(=O)C2=NOC(C)(C)C2)c(C)c1` [Compound 1-511], in assay [1], the “Herbicidal effect to Se” value is listed as 5 (A herbicidal effect or phytotoxicity of 90% or more). Besides, the “Herbicidal effect to Ec” value in assay [2] and in assay [4] was 5 (A herbicidal effect or phytotoxicity of 90% or more) throughout. In assay [3], the “Herbicidal effect to Eo” value is listed as 5 (A herbicidal effect or phytotoxicity of 90% or more).
Regarding `Cc1ccc(C)c(CS(=O)(=O)C2=NOC(C)(C)C2)c1` [Compound 1-512], in assay [1], the “Herbicidal effect to Se” value is on record as 5 (A herbicidal effect or phytotoxicity of 90% or more). Besides, the “Herbicidal effect to Ec” value in assay [2] and in assay [4] was 5 (A herbicidal effect or phytotoxicity of 90% or more) in each case. The “Herbicidal effect to Eo” value in assay [3] is 5 (A herbicidal effect or phytotoxicity of 90% or more).
In the case of `Cc1ccc(CS(=O)(=O)C2=NOC(C)(C)C2)cc1C` [Compound 1-513], in assay [1], the “Herbicidal effect to Se” value is 5 (A herbicidal effect or phytotoxicity of 90% or more). In addition, the “Herbicidal effect to Ec” value in assay [2] and in assay [4] was 5 (A herbicidal effect or phytotoxicity of 90% or more) throughout. The “Herbicidal effect to Eo” value in assay [3] was 5 (A herbicidal effect or phytotoxicity of 90% or more).
Consider `CC1(C)CC(S(=O)(=O)Cc2cc(C(F)(F)F)ccc2F)=NO1` [Compound 1-514], for which the “Herbicidal effect to Se” value in assay [1] is reported as 5 (A herbicidal effect or phytotoxicity of 90% or more). Besides, the “Herbicidal effect to Ec” value in assay [2] and in assay [4] was 5 (A herbicidal effect or phytotoxicity of 90% or more) in each case. For the same molecule, the “Herbicidal effect to Eo” value in assay [3] is given as 5 (A herbicidal effect or phytotoxicity of 90% or more).
For `CC1(C)CC(S(=O)(=O)Cc2cccc(C(F)(F)F)c2F)=NO1` [Compound 1-515], the “Herbicidal effect to Se” value in assay [1] was 5 (A herbicidal effect or phytotoxicity of 90% or more). In addition, the “Herbicidal effect to Ec” value in assay [2] and in assay [4] was 5 (A herbicidal effect or phytotoxicity of 90% or more) throughout. For the same molecule, in assay [3], the “Herbicidal effect to Eo” value is 5 (A herbicidal effect or phytotoxicity of 90% or more).
